Assay: Viscosity of HPMC K4M solution with trospium chloride (Brookfield viscometer)
Format: physicochemical
Details: S18 spindle
Procedure: Applicants have discovered that a certain interaction occurs between polarized oxygen atom containing-polymers and positively charged molecules, such as trospium chloride, which is exemplified by the dramatic change in viscosity of, for instance, an HPMC K4M solution when a drug in solution is added to it. An HPMC K4M solution was prepared and diluted to 2% by weight (or “w/w”) with either a trospium chloride solution or water. […] Without being bound to any particular theory, it is believed that this interaction leads to a slowed release of the active agent, and thus for the first time controlled release, once-daily formulations of highly water-soluble compounds can be made with relative ease.
In order to examine the interaction of trospium chloride with HPMC K4M polymer, viscosity of HPMC K4M was measured at a polymer concentration of 2% w/w at room temperature. Also examined was a 2% w/w solution of HPMC K4M containing trospium chloride at a final concentration of 16.7% w/w.
Viscosity was measured using a Brookfield viscometer fitted with an S18 spindle. Viscosity was measured at two spindle speeds. […] The contribution of the trospium chloride solution viscosity on the viscosity of the HPMC K4M solution is negligible.

O=C(O[C@H]1C[C@H]2CC[C@@H](C1)[N+]21CCCC1)C(O)(c1ccccc1)c1ccccc1 [trospium chloride]
viscosity of the HPMC K4M solution in the presence of the drug as compared to HPMC K4M solution without the drug (2% w/w HPMC K4M, trospium chloride 16.7% w/w, room temperature, two spindle speeds): more than doubled | contribution of the trospium chloride solution viscosity on the viscosity of the HPMC K4M solution (Brookfield viscometer): negligible
